In patent publication US6936585B2, “Corticotropin releasing factor 2 receptor agonists” (priority 2002, dated 2005):
Like-named read-outs stand apart in the source and are kept apart here. Peptide text beside a SMILES is read from it.

Experiments:
CRF1R = target: T1, CRF1R (Homo sapiens, UniProt P34998); test: CRF1R agonist activation (EC50 / Emax), called comparative CRF binding; assay type: cell-based
T1 sequence (P34998 24-415): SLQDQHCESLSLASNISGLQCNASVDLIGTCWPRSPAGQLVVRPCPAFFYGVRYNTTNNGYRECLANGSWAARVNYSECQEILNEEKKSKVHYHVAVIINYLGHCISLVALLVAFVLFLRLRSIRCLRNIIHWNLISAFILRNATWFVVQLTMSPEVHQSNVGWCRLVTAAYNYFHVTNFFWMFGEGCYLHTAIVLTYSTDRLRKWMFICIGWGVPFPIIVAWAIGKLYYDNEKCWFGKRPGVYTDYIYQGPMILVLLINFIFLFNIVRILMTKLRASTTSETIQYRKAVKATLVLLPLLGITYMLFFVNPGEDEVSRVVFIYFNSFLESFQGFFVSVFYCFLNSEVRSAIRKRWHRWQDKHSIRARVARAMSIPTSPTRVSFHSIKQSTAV
Outline: (§1)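 Cells expressing human CRF1R or CRF2R are exposed to peptide or vehicle control, and receptor activation is read as cAMP induction, measured in cell lysates or via a CRE-linked reporter gene.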

CRF2R = target: T2, CRF2R (Homo sapiens, UniProt Q13324); test: CRF2R agonist activation (EC50 / Emax), called comparative CRF binding; assay type: cell-based
T2 sequence (Q13324 1-411): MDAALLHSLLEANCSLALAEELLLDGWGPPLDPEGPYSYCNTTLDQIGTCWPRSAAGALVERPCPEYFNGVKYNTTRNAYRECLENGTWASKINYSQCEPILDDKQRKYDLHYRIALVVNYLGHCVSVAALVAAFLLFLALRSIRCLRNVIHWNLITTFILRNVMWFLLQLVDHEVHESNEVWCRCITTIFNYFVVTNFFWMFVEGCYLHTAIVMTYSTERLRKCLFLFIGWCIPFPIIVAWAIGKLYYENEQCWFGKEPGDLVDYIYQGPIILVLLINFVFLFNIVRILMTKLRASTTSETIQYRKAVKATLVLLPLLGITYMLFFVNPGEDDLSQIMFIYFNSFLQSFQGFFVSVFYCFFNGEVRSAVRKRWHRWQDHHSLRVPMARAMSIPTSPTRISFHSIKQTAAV
Outline: as §1

| Compound | EC50 (CRF1R; read-out: CRF1R EC50) | Emax (CRF1R; read-out: CRF1R Emax) | EC50 (CRF2R; read-out: CRF2R EC50) | Emax (CRF2R; read-out: CRF2R Emax) | EC50 (CRF1R; CRF1R EC50) | EC50 (CRF2R) |
| --- | --- | --- | --- | --- | --- | --- |
| CC[C@H](C)[C@H](NC(=O)[C@H](CCCNC(=N)N)NC(=O)[C@H](C)NC(=O)[C@H](CC(N)=O)NC(=O)[C@H](CCC(N)=O)NC(=O)[C@H](CCC(=O)O)NC(=O)[C@H](C)NC(=O)[C@H](CCCNC(=N)N)NC(=O)[C@H](CCC(=O)O)NC(=O)[C@H](CCCNC(=N)N)NC(=O)[C@H](CCC(N)=O)NC(=O)[C@H](CO)NC(=O)[C@H](CCC(N)=O)NC(=O)[C@@H](NC(=O)[C@H](CCCCN)NC(=O)[C@H](CCC(=O)O)NC(=O)[C@H](CC(C)C)NC(=O)[C@H](CCC(=O)O)NC(=O)[C@H](CC(C)C)NC(=O)[C@H](CC(C)C)NC(=O)[C@@H](NC(=O)[C@H](CCCNC(=N)N)NC(=O)[C@H](CC(C)C)NC(=O)[C@H](CC(C)C)NC(=O)[C@H](Cc1ccc(O)cc1)NC(=O)[C@H](CC(C)C)NC(=O)[C@@H]1CCCN1C(=O)[C@@H](NC(=O)[C@H](CC(=O)O)NC(=O)[C@@H](NC(=O)[C@H](CO)NC(=O)[C@H](CC(C)C)NC(=O)[C@H](CO)NC(=O)[C@@H]1CCCN1C(=O)[C@H](CC(N)=O)NC(=O)[C@@H](N)CC(=O)O)[C@@H](C)CC)C(C)C)[C@@H](C)O)[C@@H](C)O)C(=O)N[C@@H](Cc1ccccc1)C(=O)N[C@@H](C)C(=O)N[C@@H](CCCNC(=N)N)C(=O)N[C@H](C(N)=O)C(C)C [compound 387] (H-DNPSLSIDVPLYLLRTLLELEKTQSQRERAEQNARIFARV-NH2; N-terminus assumed) | ≥ 1000 nM | 50.1% | 17.8 nM | 100% | – | – |
| CC[C@H](C)[C@H](NC(=O)[C@H](CO)NC(=O)[C@H](CC(C)C)NC(=O)[C@H](CO)NC(=O)[C@@H]1CCCN1C(=O)[C@H](CC(N)=O)NC(=O)[C@@H](N)CC(=O)O)C(=O)N[C@@H](CC(=O)O)C(=O)N[C@@H](CC(C)C)C(=O)N[C@H](C(=O)N[C@@H](Cc1ccccc1)C(=O)N[C@@H](Cc1cnc[nH]1)C(=O)N[C@@H](CC(C)C)C(=O)N[C@@H](CC(C)C)C(=O)N[C@@H](CCCNC(=N)N)C(=O)N[C@H](C(=O)N[C@@H](CC(C)C)C(=O)N[C@@H](CC(C)C)C(=O)N[C@@H](CCC(=O)O)C(=O)N[C@@H](CC(C)C)C(=O)N[C@@H](C)C(=O)N[C@@H](CCCNC(=N)N)C(=O)N[C@H](C(=O)N[C@@H](CCC(N)=O)C(=O)N[C@@H](CO)C(=O)N[C@@H](CCC(N)=O)C(=O)N[C@@H](CCCNC(=N)N)C(=O)N[C@@H](CCC(=O)O)C(=O)N[C@@H](CCCNC(=N)N)C(=O)N[C@@H](C)C(=O)N[C@@H](CCC(=O)O)C(=O)N[C@@H](CCC(N)=O)C(=O)N[C@@H](CC(N)=O)C(=O)N[C@@H](CCCNC(=N)N)C(=O)N[C@H](C(=O)N[C@H](C(=O)N[C@@H](Cc1ccccc1)C(=O)N[C@@H](CC(=O)O)C(=O)N[C@@H](CO)C(=O)N[C@H](C(N)=O)C(C)C)[C@@H](C)CC)[C@@H](C)CC)[C@@H](C)O)[C@@H](C)O)[C@@H](C)O [hUcnI, human urocortin I, reference compound] (H-DNPSLSIDLTFHLLRTLLELARTQSQRERAEQNRIIFDSV-NH2) | – | – | – | – | 9 nM | 3.52 nM |
